For the series, the system named is Madin-Darby Canine Kidney (MDCK) cells. Briefly: in vitro transepithelial permeability assay (fluorescein, Tchao) for eye irritation potential. To be noted: MDCK monolayer, 30 minutes at 37° C., Na-fluorescein permeability; SDS=100% response; less than 20% considered non-irritating.

The values below come from patent US20040220089A1, “Ophthalmic preparation containing glycoprotein” (priority 2001, published 2004).

Source text: The Tchao technique is described as a method of determining potential eye irritation of a substance by correlating damage to a mono-layer of Madin-Darby Canine Kidney (MDCK) cells with damage to corneal epithelial cells. The amount of fluorescein passing through the cell mono-layer is a function of permeability of the cell mono-layer. Higher cell mono-layer permeability indicates greater damage to the cell junctions from application of a test solution thereto, whereas lower cell mono-layer permeability indicates less damage to the cell junctions from application of the test solution. […]
Test: Each insert is rinsed with Hanks Balanced Salt Solution (HBSS) 3×1 ml using a 10 ml syringe without needle. […] After incubation at room temperature for 30 minutes, the inserts are sequentially removed from the wells, and the amount of Na-fluorescein in each of the wells is measured in a CytoFluor 2300, using 540 nm excitation and 590 nm emission. […] It has been determined that the assay can measure the effect of 50 μg/ml SDS, and the effect on the permeability of the monolayer is linearly proportional to the concentrations of SDS from 50-250 μg/ml. Fluorescence units (arbitrary) of each test solution is plotted against test solutions.
Interpretation of results: The results are expressed as % of SDS response, and comparisons with the HBSS response. […]

With `CCCCCCCCCCCCOS(=O)(=O)[O-].[Na+]` [SDS, sodium dodecyl sulfate], the “RESPONSE (percentage of SDS response)” value turned out to be 100%.
